Measurements as given in patent US10106515B2, “1-(cyclopent-2-en-1-yl)-3-(2-hydroxy-3-(arylsulfonyl)phenyl)urea derivatives as CXCR2 inhibitors” (GLAXOSMITHKLINE INTELLECTUAL PROPERTY DEVELOPMENT LIMITED, priority 2014, dated 2018).

Biological target: T1, recombinant human CXCR2 (Homo sapiens, UniProt P25025)
T1 construct: TEV protease site; Gal4-VP16 transcription factor
T1 sequence (P25025 1-360): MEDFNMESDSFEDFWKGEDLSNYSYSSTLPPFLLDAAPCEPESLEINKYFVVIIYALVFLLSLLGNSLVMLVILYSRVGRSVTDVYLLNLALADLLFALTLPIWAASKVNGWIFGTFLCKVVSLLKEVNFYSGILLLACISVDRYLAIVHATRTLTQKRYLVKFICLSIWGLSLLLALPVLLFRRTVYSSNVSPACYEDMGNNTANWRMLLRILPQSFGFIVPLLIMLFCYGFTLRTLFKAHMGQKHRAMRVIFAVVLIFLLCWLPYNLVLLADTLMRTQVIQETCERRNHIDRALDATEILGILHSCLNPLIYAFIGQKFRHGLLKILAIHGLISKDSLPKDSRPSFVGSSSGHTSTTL
Assay: CXCR2 Tango assay
Type: cell-based
Conditions: mean pIC50 of multiple test results; stimulated with 80 nM hCXCL1; reporter gene blue/green emission ratio; read-out: pIC50 (CXCR2 Tango assay) (converted)
Summary of the method: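 A stable cell line carries human CXCR2 fused to a TEV site and Gal4-VP16, with protease-tagged arrestin. Cells (~10,000/well) were stimulated overnight at 37 °C with 80 nM hCXCL1 and a 10-point compound dilution. CCF4-AM beta-lactamase FRET (460/530 nm ratio) was read, normalized to hCXCL1 and DMSO, and mean pIC50 reported.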

CC1=CCC[C@H]1NC(=O)Nc1ccc(Cl)c(S(=O)(=O)[C@@]2(C)CCOC2)c1O [Compound 195, 1-(4-chloro-2-hydroxy-3-(((S)-3-methyltetrahydrofuran-3-yl)sulfonyl)phenyl)-3-((R)-2-methylcyclopent-2-en-1-yl)urea]
IC50: ≤ 10 nM
